{"source": "patent US20120321577A1", "about": "“Skin-whitening composition containing tyrosinase inhibitor” (priority 2011, published 2012)", "origin": "cited, not measured here", "details": "conventionally"}
{"smiles": "NC[C@H]1CC[C@H](C(=O)O)CC1", "note": "[tranexamic acid]", "values": [{"measurement": "concentration needed to give whitening effect", "result": "higher than 3%"}]}
